Data published in patent US10239887B2, “Positive allosteric modulators of the muscarinic acetylcholine receptor M4” (Vanderbilt University, priority 2016, dated 2019).
Counter-ions that a name gives are not always drawn.

Target: T1, human mAChR M4 (Homo sapiens, UniProt P08173)
T1 sequence (P08173 1-479): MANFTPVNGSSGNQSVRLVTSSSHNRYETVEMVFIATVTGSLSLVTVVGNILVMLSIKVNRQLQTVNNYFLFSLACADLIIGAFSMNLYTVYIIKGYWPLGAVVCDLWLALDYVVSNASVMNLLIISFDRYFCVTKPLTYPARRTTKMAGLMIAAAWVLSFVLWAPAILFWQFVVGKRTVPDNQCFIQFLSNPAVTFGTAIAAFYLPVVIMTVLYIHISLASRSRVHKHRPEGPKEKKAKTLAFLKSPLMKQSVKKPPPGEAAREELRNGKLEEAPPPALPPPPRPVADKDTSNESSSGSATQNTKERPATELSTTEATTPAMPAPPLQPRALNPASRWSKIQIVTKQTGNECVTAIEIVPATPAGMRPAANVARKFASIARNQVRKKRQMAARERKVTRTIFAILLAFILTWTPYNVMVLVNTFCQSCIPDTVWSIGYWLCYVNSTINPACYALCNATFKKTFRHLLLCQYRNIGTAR
Assay: mAChR M4 cell-based functional assay (calcium flux), human M4
Details: Table 11; for EC50: Human M4 EC50 (nM), calcium flux, PAM activity with EC20 acetylcholine; for Emax: % ACh maximum at 30 μM

Compound | EC50 [nM] | Emax [%]
Cc1nnc2sc3c(N4CC[C@H](Oc5ccnc(C(F)(F)F)c5)C4)ncnc3c2c1C [Compound 331, 3,4-dimethyl-8-[(3S)-3-[[2-(trifluoromethyl)-4-pyridyl]oxy]pyrrolidin-1-yl]pyrimido [4′,5′:4,5]thieno[2,3-c] pyridazine] | 142 | 80.6
Cc1nnc2sc3c(N4CC[C@H](Oc5cccnc5)C4)ncnc3c2c1C [Compound 332, 3,4-dimethyl-8-[(3S)-3-(3-pyridyloxy)pyrrolidin-1-yl] pyrimido[4′,5′:4,5]thieno [2,3-c]pyridazine] | 129 | 80.5
CNC(=O)c1cc(CN(C)c2ncnc3c2sc2nnc(C)c(C)c23)ccc1F [Compound 333, 5-[[(3,4-dimethylpyrimido [4′,5′:4,5]thieno[2,3-c]pyridazin-8-yl)(methyl)amino]methyl]-2-fluoro-N-methyl-benzamide] | 1810 | 39.1
Cc1cc(CNc2ncnc3c2sc2nnc(C)c(C)c23)ccc1C(C)(C)O [Compound 334, 2-[4-[[(3,4-dimethylpyrimido [4′,5′:4,5]thieno[2,3-c]pyridazin-8-yl)amino]methyl]-2-methyl-phenyl]propan-2-ol] |  | 90.6
Cc1cc(C(C)(C)O)ccc1CNc1ncnc2c1sc1nnc(C)c(C)c12 [Compound 335, 2-[4-[[(3,4-dimethylpyrimido [4′,5′:4,5]thieno[2,3-c]pyridazin-8-yl)amino]methyl]-3-methyl-phenyl]propan-2-ol] |  | 71.1
Cc1nnc2sc3c(N4CC[C@@H](Oc5ccnc(Cl)c5)C4)ncnc3c2c1C [Compound 336, 8-[(3R)-3-[(2-chloro-4-pyridyl)oxy]pyrrolidin-1-yl]-3,4-dimethyl-pyrimido [4′,5′:4,5]thieno[2,3-c] pyridazine] | 105 | 76.9
Cc1nnc2sc3c(N4CC[C@@H](Oc5ccnc(C(F)(F)F)c5)C4)ncnc3c2c1C [Compound 337, 3,4-dimethyl-8-[(3R)-3-[[2-(trifluoromethyl)-4-pyridyl]oxy]pyrrolidin-1-yl]pyrimido[4′,5′:4,5] thieno[2,3-c]pyridazine] | 116 | 80.2
Cc1cc(O[C@@H]2CCN(c3ncnc4c3sc3nnc(C)c(C)c34)C2)ccn1 [Compound 338, 3,4-dimethyl-8-[(3R)-3-[(2-methyl-4-pyridyl)oxy]pyrrolidin-1-yl] pyrimido[4′,5′:4,5] thieno[2,3-c]pyridazine] | 73.4 | 74.6
Cc1nnc2sc3c(NC4CC(O)(c5ccc(F)cc5)C4)ncnc3c2c1C (stereo not drawn) [Compound 339, 3-[(3,4-dimethylpyrimido [4′,5′:4,5]thieno[2,3-c]pyridazin-8-yl)amino]-1-(4-fluorophenyl) cyclobutanol] | 4900 | 50.9
Cc1nnc2sc3c(N4CC[C@@H](Oc5cccnc5)C4)ncnc3c2c1C [Compound 340, 3,4-dimethyl-8-[(3R)-3-(3-pyridyloxy)pyrrolidin-1-yl]pyrimido[4′,5′:4,5] thieno[2,3-c]pyridazine] | 101 | 72.9
Cc1nnc2sc3c(NCc4ccc(-c5cccn5C)cc4)ncnc3c2c1C [Compound 341, 3,4-dimethyl-N-[[4-(1-methylpyrrol-2-yl)phenyl]methyl]pyrimido[4′,5′:4,5] thieno[2,3-c]pyridazin-8-amine] | 1290 | 81.2
Cc1cnn(C)c1-c1ccc(CNc2ncnc3c2sc2nnc(C)c(C)c23)cc1 [Compound 342, N-[[4-(2,4-dimethylpyrazol-3-yl)phenyl]methyl]-3,4-dimethyl-pyrimido[4′,5′:4,5] thieno[2,3-c]pyridazin-8-amine] | 1100 | 81.5
CCn1nccc1-c1ccc(CNc2ncnc3c2sc2nnc(C)c(C)c23)cc1 [Compound 343, N-[[4-(2-ethylpyrazol-3-yl)phenyl]methyl]-3,4-dimethyl-pyrimido [4′,5′:4,5]thieno[2,3-c] pyridazin-8-amine] | 850 | 72.2
Cc1nnc2sc3c(NCc4ccc(-c5ccnn5C)cc4F)ncnc3c2c1C [Compound 344, N-[[2-fluoro-4-(2-methylpyrazol-3-yl)phenyl]methyl]-3,4-dimethyl-pyrimido[4′,5′:4,5]thieno [2,3-c]pyridazin-8-amine] | 824 | 70.9
Cc1nnc2sc3c(NCc4ccc(-n5cccn5)cc4)ncnc3c2c1C [Compound 345, 3,4-dimethyl-N-[(4-pyrazol-1-ylphenyl)methyl] pyrimido[4′,5′:4,5]thieno [2,3-c]pyridazin-8-amine] | 830 | 87.1
Cc1nnc2sc3c(N4CCC(Oc5ccnc(Cl)c5)CC4)ncnc3c2c1C [Compound 346, 8-[4-[(2-chloro-4-pyridyl)oxy]-1-piperidyl]-3,4-dimethyl-pyrimido [4′,5′:4,5]thieno[2,3-c] pyridazine] | 749 | 56.8
Cc1nnc2sc3c(N4CCC(COc5ccnc(Cl)c5)C4)ncnc3c2c1C (stereo not drawn) [Compound 347, 8-[3-[(2-chloro-4-pyridyl)oxymethyl]pyrrolidin-1-yl]-3,4-dimethyl-pyrimido[4′,5′:4,5] thieno[2,3-c]pyridazine dihydrochloride] | 362 | 48.5
Cc1nnc2sc3c(N4CC(COc5ccnc(Cl)c5)C4)ncnc3c2c1C [Compound 348, 8-[3-[(2-choro-4-pyridyl)oxymethyl]azetidin-1-yl]-3,4-dimethyl-pyrimido [4′,5′:4,5]thieno[2,3-c] pyridazine dihydrochloride] | 1710 | 65.7
Cc1nnc2sc3c(N4CC(Oc5ccnc(Cl)c5)C4)ncnc3c2c1C [Compound 349, 8-[3-[(2-chloro-4-pyridyl)oxy]azetidin-1-yl]-3,4-dimethyl-pyrimido[4′,5′:4,5] thieno[2,3-c]pyridazine dihydrochloride] | 210 | 81.2
Cc1nnc2sc3c(N4CC(Oc5cnccn5)C4)ncnc3c2c1C [Compound 350, 3,4-dimethyl-8-(3-pyrazin-2-yloxyazetidin-1-yl) pyrimido[4′,5′:4,5]thieno [2,3-c]pyridazine dihydrochloride] | 404 | 78.1
Cc1cc(C)c(OC2CN(c3ncnc4c3sc3nnc(C)c(C)c34)C2)cn1 [Compound 351, 8-[3-[(4,6-dimethyl-3-pyridyl)oxy]azetidin-1-yl]-3,4-dimethyl-pyrimido[4′,5′:4,5]thieno [2,3-c]pyridazine dihydrochloride] | 444 | 62.1
[2H]C([2H])([2H])C(O)(c1ccc(CNc2ncnc3c2sc2nnc(C)c(C)c23)cc1)C([2H])([2H])[2H] [Compound 352, 1,1,1,3,3,3-hexadeuterio-2-[4-[[(3,4-dimethylpyrimido [4′,5′:4,5]thieno[2,3-c]pyridazin-8-yl)amino]methyl]phenyl]propan-2-ol] |  | 103
Cc1nnc2sc3c(N4CC[C@@H](C(C)(C)O)C4)ncnc3c2c1C [Compound 353, 2-[(3R)-1-(3,4-dimethylpyrimido [4′,5′:4,5]thieno[2,3-c]pyridazin-8-yl)pyrrolidin-3-yl]propan-2-ol] | 321 | 48.8
Cc1nnc2sc3c(N4CC[C@H](C(C)(C)O)C4)ncnc3c2c1C [Compound 354, 2-[(3S)-1-(3,4-dimethylpyrimido[4′,5′:4,5]thieno[2,3-c]pyridazin-8-yl)pyrrolidin-3-yl]propan-2-ol] | 362 | 53
Cc1nnc2sc3c(N4CC(Oc5ccc(C#N)nc5)C4)ncnc3c2c1C [Compound 355, 5-[1-(3,4-dimethylpyrimido[4′,5′:4,5]thieno[2,3-c]pyridazin-8-yl)azetidin-3-yl]oxypyridine-2-carbonitrile dihydrochloride] | 1310 | 49.2
Cc1nnc2sc3c(N4CC(Oc5cccnc5)C4)ncnc3c2c1C [Compound 356, 3,4-dimethyl-8-[3-(3-pyridyloxy)azetidin-1-yl]pyrimido[4′,5′:4,5]thieno [2,3-c]pyridazine dihydrochloride] | 1170 | 32.8
Cc1nnc2sc3c(N4CC(Oc5cnn(C)c5)C4)ncnc3c2c1C [Compound 357, 3,4-dimethyl-8-[3-(1-methylpyrazol-4-yl)oxyazetidin-1-yl]pyrimido [4′,5′:4,5]thieno[2,3-c] pyridazine dihydrochloride] | 1400 | 41.3
Cc1cc(O[C@H]2CN(c3ncnc4c3sc3nnc(C)c(C)c34)C[C@@H]2C)ccn1 [Compound 358, 3,4-dimethyl-8-[(3S,4R)-3-methyl-4-[(2-methyl-4-pyridyl)oxy]pyrrolidin-1-yl]pyrimido[4′,5′:4,5] thieno[2,3-c] pyridazine dihydrochloride] | 276 | 76
Cc1nnc2sc3c(N4CC[C@H](Oc5ccccn5)C4)ncnc3c2c1C [Compound 359, 3,4-dimethyl-8-[(3S)-3-(2-pyridyloxy)pyrrolidin-1-yl]pyrimido[4′,5′:4,5]thieno[2,3-c]pyridazine dihydrochloride] | 488 | 31.8
Cc1nnc2sc3c(N4CC[C@H](Oc5ccc(C(F)(F)F)cn5)C4)ncnc3c2c1C [Compound 360, 3,4-dimethyl-8-[(3S)-3-[[5-(trifluoromethyl)-2-pyridyl]oxy]pyrrolidin-1-yl] pyrimido[4′,5′:4,5]thieno [2,3-c]pyridazine dihydrochloride] | 333 | 56
